For 29 compounds, EC50 results are on record in patent US20120070411A1, “SUBSTITUTED NUCLEOTIDE ANALOGS” (Alios BioPharma, Inc., priority 2010, published 2012).

The assay deals with Huh-7 cells containing the self-replicating, subgenomic HCV replicon. In words: HCV replicon assay (luciferase reporter, 72 h). Conditions: Hepatitis C virus, Huh-7, 72 h, read-out: HCV Replicon Activity (EC50). It is filed as cell-based. The method, then: Huh-7 cells containing the self-replicating, subgenomic HCV replicon with a stable luciferase (LUC) reporter were cultured in Dulbecco's modified Eagle's medium (DMEM) containing 2 mM L-glutamine and supplemented with 10% heat-inactivated fetal bovine serum (FBS), 1% penicillin-streptomyocin, 1% nonessential amino acids, and 0.5 mg/ml G418.
On the first day, 5,000 HCV replicon cells were plated per well in a 96-well plate. On the following day, test compounds were solubilized in 100% DMSO to 100× the desired final testing concentration. Each compound was then serially diluted (1:3) up to 9 different concentrations. Compounds in 100% DMSO are reduced to 10% DMSO by diluting 1:10 in cell culture media. The compounds were diluted to 10% DMSO with cell culture media, which were used to dose the HCV replicon cells in 96-well format. The final DMSO concentration was 1%. The HCV replicon cells were incubated at 37° C. for 72 hours. At 72 hours, cells were processed when the cells are still subconfluent. Compounds that reduce the LUC signal are determined by Bright-Glo Luciferase Assay (Promega, Madison, Wis.). % Inhibition was determined for each compound concentration in relation to the control cells (untreated HCV replicon) to calculate the EC50.
On the technique in general: In antiviral work, replicon cells carry a viral genome segment that copies itself.

For `C[C@H](NP(=O)(Oc1cccc2ncccc12)O[C@@H](C)[C@H]1O[C@@H](n2cnc3c(N)ncnc32)[C@H](O)[C@@H]1O)C(=O)OC1CCCCC1` (stereo in doubt) [A35], the EC50 is < 30 µM.
The value for `CC(C)OC(=O)[C@H](C)N[P@](=O)(Oc1cccc2ccccc12)O[C@@H](C)[C@H]1O[C@@H](n2cnc3c(=O)[nH]cnc32)[C@H](O)[C@@H]1O` (stereo in doubt) [B5, 5′(S)—C-methylinosine 5′-[1-naphthyl(isopropoxy-L-alaninyl)]phosphate] was < 100 µM; that for `COC(=O)C(C)NP(=O)(Oc1ccccc1)OC(C)[C@H]1O[C@@H](n2ccc(=O)[nH]c2=O)C(F)(F)C1O` (stereo in doubt) [D4, 2′-Deoxy-2′,2′-difluoro-5′(S)—C-methyluridine 5′-[phenyl(methoxy-L-alaninyl)]phosphate] was < 30 µM; that for `C[C@H](NP(=O)(Oc1cccc2ccccc12)O[C@@H](C)[C@H]1O[C@@H](n2cnc3c(N)ncnc32)[C@H](O)[C@@H]1O)C(=O)OC1CCCCC1` (stereo partly drawn) [A1, 5′(S)—C-methyladenosine 5′-[1-naphthyl(cyclohexoxy-L-alaninyl)]phosphate] was < 1 µM.
Regarding `C[C@H](NP(=O)(Oc1cccc2ccccc12)O[C@@H](C)[C@H]1O[C@@H](n2cnc3c(N)ncnc32)[C@H](O)[C@@H]1O)C(=O)OCC(C)(C)C` (stereo partly drawn) [A2, 5′(S)—C-methyladenosine 5′-[1-naphthyl(neopentoxy-L-alaninyl)]phosphate], the EC50 was < 1 µM.
Then `C[C@H](NP(=O)(Oc1cccc2ccccc12)O[C@@H](C)[C@H]1O[C@@H](n2cnc3c(N)ncnc32)[C@@H]2OC(=O)O[C@@H]21)C(=O)OC1CCCCC1` (stereo partly drawn) [A3, 2′,3′-O-carbonyl-5′(S)—C-methyladenosine 5′-[1-naphthyl(cyclohexoxy-L-alaninyl)]phosphate], with < 1 µM; and `C[C@H](NP(=O)(Oc1cccc2ccccc12)O[C@@H](C)[C@H]1O[C@@H](n2cnc3c(N)ncnc32)[C@@H]2OC(=O)O[C@@H]21)C(=O)OCC(C)(C)C` (stereo partly drawn) [A4, 2′,3′-O-carbonyl-5′(S)—C-methyladenosine 5′-[1-naphthyl(neopentoxy-L-alaninyl)]phosphate], with < 1 µM.
On to `COC(=O)Nc1ncnc2c1ncn2[C@@H]1O[C@H]([C@H](C)OP(=O)(N[C@@H](C)C(=O)OC2CCCCC2)Oc2cccc3ccccc23)[C@H]2OC(=O)O[C@H]21` (stereo partly drawn) [A5, 2′,3′-O-carbonyl-N6-methoxycarbonyl-5′(S)—C-methyladenosine 5′-[1-naphthyl(cyclohexoxy-L-alaninyl)]phosphate], for which the EC50 is < 30 µM.
Then `COC(=O)Nc1ncnc2c1ncn2[C@@H]1O[C@H]([C@H](C)OP(=O)(N[C@@H](C)C(=O)OC2CCCCC2)Oc2cccc3ccccc23)[C@@H](O)[C@H]1O` (stereo partly drawn) [A6, N6-methoxycarbonyl-5′(S)—C-methyladenosine 5′-[1-naphthyl(cyclohexoxy-L-alaninyl)]phosphate], with < 30 µM; and `COC(=O)Nc1ncnc2c1ncn2[C@@H]1O[C@H]([C@H](C)OP(=O)(N[C@@H](C)C(=O)OCC(C)(C)C)Oc2cccc3ccccc23)[C@H]2OC(=O)O[C@H]21` (stereo partly drawn) [A7, 2′,3′-O-carbonyl-N6-methoxycarbonyl-5′(S)—C-methyladenosine 5′-[1-naphthyl(neopentoxy-L-alaninyl)]phosphate], with < 30 µM.
The value for `CC(C)OC(=O)[C@H](C)NP(=O)(Oc1ccccc1)O[C@@H](C)[C@H]1O[C@@H](n2cnc3c(N)ncnc32)[C@H](O)[C@@H]1O` (stereo partly drawn) [A8, 5′(S)—C-methyladenosine 5′-[phenyl(isopropoxy-L-alaninyl)]phosphate] was < 1 µM; that for `CC(C)OC(=O)[C@H](C)NP(=O)(Oc1ccccc1)O[C@@H](C)[C@H]1O[C@@H](n2cnc3c(N)ncnc32)[C@@H]2OC(=O)O[C@@H]21` (stereo partly drawn) [A9, 2′,3′-carbonyl-5′(S)—C-methyladenosine 5′-[phenyl(isopropoxy-L-alaninyl)]phosphate] was < 1 µM.
The value for `C[C@H](NP(=O)(Oc1ccccc1)O[C@@H](C)[C@H]1O[C@@H](n2cnc3c(N)ncnc32)[C@H](O)[C@@H]1O)C(=O)OC1CCCCC1` (stereo partly drawn) [A10, 5′(S)—C-methyladenosine 5′-[phenyl(cyclohexoxy-L-alaninyl)]phosphate] was < 1 µM; that for `C[C@H](N[P@@](=O)(Oc1ccccc1)O[C@@H](C)[C@H]1O[C@@H](n2cnc3c(N)ncnc32)[C@H](O)[C@@H]1O)C(=O)OC1CCCCC1` [A10a, 5′(S)—C-methyladenosine 5′(S)-[phenyl(cyclohexoxy-L-alaninyl)]phosphate] was < 1 µM; that for `C[C@H](N[P@](=O)(Oc1ccccc1)O[C@@H](C)[C@H]1O[C@@H](n2cnc3c(N)ncnc32)[C@H](O)[C@@H]1O)C(=O)OC1CCCCC1` [A10b, 5′(S)—C-methyladenosine 5′(R)-[phenyl(cyclohexoxy-L-alaninyl)]phosphate] was < 1 µM.
`C[C@H](NP(=O)(Oc1ccccc1)O[C@@H](C)[C@H]1O[C@@H](n2cnc3c(N)ncnc32)[C@H](O)[C@@H]1O)C(=O)OCC(C)(C)C` (stereo partly drawn) [A11, 5′(S)—C-methyladenosine 5′-[phenyl(neopentoxy-L-alaninyl)]phosphate]: the EC50 is < 1 µM.
Then `C[C@H](NP(=O)(Oc1ccccc1)O[C@@H](C)[C@H]1O[C@@H](n2cnc3c(N)ncnc32)[C@@H]2OC(=O)O[C@@H]21)C(=O)OCC(C)(C)C` (stereo partly drawn) [A12, 2′,3′-O-carbonyl-5′(S)—C-methyladenosine 5′-[phenyl(neopentoxy-L-alaninyl)]phosphate], with < 1 µM; and `C[C@H](NP(=O)(Oc1ccccc1)O[C@@H](C)[C@H]1O[C@@H](n2cnc3c(N)ncnc32)[C@@H]2OC(=O)O[C@@H]21)C(=O)OC1CCCCC1` (stereo partly drawn) [A13, 2′,3′-O-carbonyl-5′(S)—C-methyladenosine 5′-[phenyl(cyclohexoxy-L-alaninyl)]phosphate], with < 1 µM.
The value for `CCC(=O)O[C@H]1[C@@H](OC(=O)CC)[C@H](n2cnc3c(N)ncnc32)O[C@@H]1[C@H](C)OP(=O)(N[C@@H](C)C(=O)OC(C)C)Oc1ccccc1` (stereo partly drawn) [A14, 2′,3′-O-dipropionyl-5′(S)—C-methyladenosine 5′-[phenyl(isopropoxy-L-alaninyl)]phosphate] was < 1 µM; that for `COC(=O)[C@H](C)NP(=O)(Oc1ccccc1)O[C@@H](C)[C@H]1O[C@@H](n2cnc3c(N)ncnc32)[C@H](O)[C@@H]1O` (stereo partly drawn) [A15, 5′(S)—C-methyladenosine 5′-[phenyl(methoxy-L-alaninyl)]phosphate] was < 30 µM; that for `COC(=O)[C@H](C)NP(=O)(Oc1ccccc1)O[C@@H](C)[C@H]1O[C@@H](n2cnc3c(N)ncnc32)[C@@H]2OC(=O)O[C@@H]21` (stereo partly drawn) [A16, 2′,3′-O-carbonyl-5′(S)—C-methyladenosine 5′-[phenyl(methoxy-L-alaninyl)]phosphate] was < 30 µM.
Then `CCC(=O)O[C@H]1[C@@H](OC(=O)CC)[C@H](n2cnc3c(N)ncnc32)O[C@@H]1[C@H](C)OP(=O)(N[C@@H](C)C(=O)OCC(C)(C)C)Oc1ccccc1` (stereo partly drawn) [A17, 2′,3′-O-dipropionyl-5′(S)—C-methyladenosine 5′-[phenyl(neopentoxy-L-alaninyl)]phosphate], with < 1 µM; and `CCOC(=O)[C@H](C)NP(=O)(Oc1cccc2ccccc12)O[C@@H](C)[C@H]1O[C@@H](n2cnc3c(N)ncnc32)[C@H](O)[C@@H]1O` (stereo partly drawn) [A19, 5′(S)—C-methyladenosine 5′-[1-naphthyl(ethoxy-L-alaninyl)]phosphate], with < 1 µM.
Consider `CC(C)OC(=O)[C@H](C)NP(=O)(Oc1cccc2ccccc12)O[C@@H](C)[C@H]1O[C@@H](n2cnc3c(N)ncnc32)[C@H](O)[C@@H]1O` (stereo partly drawn) [A20, 5′(S)—C-methyladenosine 5′-[1-naphthyl(isopropoxy-L-alaninyl)]phosphate], for which the EC50 was < 1 µM.
For the compound `C[C@H](NP(=O)(Oc1cccc2ccccc12)O[C@@H](C)[C@H]1O[C@@H](n2cnc3c(N)ncnc32)[C@H](O)[C@@H]1O)C(=O)OCc1ccccc1` (stereo partly drawn) [A21, 5′(S)—C-methyladenosine 5′-[1-naphthyl(benzyloxy-L-alaninyl)]phosphate], the EC50 is < 1 µM.
Turning to `CCC(=O)O[C@H]1[C@@H](OC(=O)CC)[C@H](n2cnc3c(N)ncnc32)O[C@@H]1[C@H](C)OP(=O)(N[C@@H](C)C(=O)OC(C)C)Oc1cccc2ccccc12` (stereo partly drawn) [A22, 2′,3′-O-dipropionyl-5′-(S)—C-methyladenosine 5′-[1-naphthyl(isopropoxy-L-alaninyl)]phosphate], the 50% effective concentration (EC50) was < 1 µM.
Then `CC(C)OC(=O)[C@H](C)NP(=O)(Oc1cccc2ccccc12)O[C@@H](C)[C@H]1O[C@@H](n2cnc3c(N)ncnc32)[C@@H]2OC(=O)O[C@@H]21` (stereo partly drawn) [A23, 2′,3′-O-carbonyl-5(S)—C-methyladenosine 5′-[1-naphthyl(isopropoxy-L-alaninyl)]phosphate], with < 1 µM; and `CC[C@H](OP(=O)(N[C@@H](C)C(=O)OC(C)C)Oc1ccccc1)[C@H]1O[C@@H](n2cnc3c(N)ncnc32)[C@H](O)[C@@H]1O` (stereo partly drawn) [A24, 5′(S)—C-ethyladenosine 5′-[phenyl(isopropoxy-L-alaninyl)]phosphate], with < 100 µM; and `CC[C@@H](OP(=O)(N[C@@H](C)C(=O)OC(C)C)Oc1ccccc1)[C@H]1O[C@@H](n2cnc3c(N)ncnc32)[C@H](O)[C@@H]1O` (stereo partly drawn) [A25, 5′(R)—C-ethyladenosine 5′-[phenyl(isopropoxy-L-alaninyl)]phosphate], with < 1000 µM.

As usually defined, the EC50 is the concentration that produces a half-maximal response.
